Results: US20240279202A1 (NURIX THERAPEUTICS, INC., priority 2021, published 2024)

Target: T1, ITK (Homo sapiens, UniProt Q08881)
T1 sequence (Q08881 1-620): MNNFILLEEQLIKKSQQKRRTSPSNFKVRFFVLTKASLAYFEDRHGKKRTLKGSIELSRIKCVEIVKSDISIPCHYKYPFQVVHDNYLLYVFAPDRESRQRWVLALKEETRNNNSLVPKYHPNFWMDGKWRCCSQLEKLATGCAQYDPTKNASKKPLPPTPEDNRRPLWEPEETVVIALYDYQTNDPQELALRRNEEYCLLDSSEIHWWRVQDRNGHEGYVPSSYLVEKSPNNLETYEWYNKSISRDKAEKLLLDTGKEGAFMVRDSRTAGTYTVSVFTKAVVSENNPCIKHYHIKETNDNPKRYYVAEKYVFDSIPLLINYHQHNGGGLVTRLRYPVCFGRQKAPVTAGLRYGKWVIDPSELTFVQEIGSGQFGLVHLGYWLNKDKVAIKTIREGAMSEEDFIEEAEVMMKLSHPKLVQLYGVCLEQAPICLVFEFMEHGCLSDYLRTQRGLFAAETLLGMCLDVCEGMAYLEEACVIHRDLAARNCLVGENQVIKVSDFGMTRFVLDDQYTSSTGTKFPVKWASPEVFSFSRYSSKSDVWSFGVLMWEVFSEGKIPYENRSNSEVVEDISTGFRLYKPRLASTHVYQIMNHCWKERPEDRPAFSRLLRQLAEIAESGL
Experiment: ITK degradation HiBiT assay
Format: cell-based
Parameters: expressed in transfected cells; host or cells: Molt4 (ATCC CRL-1552), monoclonal clone 1C10, engineered to carry the HiBiT tag
Conditions: 4 hrs; for DC50: C-terminal HiBiT-tagged Molt4 cells; for Dmax: MOLT-4, C-terminal HiBiT-tagged Molt4 cells
Description: Itk Degradation Hibit Assay
Compounds provided herein were assayed in vitro with ITK HiBit cell lines. Compound dilution series (11-point, 5 fold dilutions in DMSO, columns 2-12 with replicate in rows A/B, C/D, E/F, G,H at 2000× the final required concentrations were prepared in 96 well plates (Falcon, cat. no. 353077). Column 1, rows A-H were control DMSO. The 2000× solutions ranged from 2 mM to 1.024 nM (final assay concentration range 1 μM to […]). The 2000× solutions were added to cells in […], for a final DMSO concentration of 0.5% and final assay compound concentration of 1×. For the cells, C-terminal HiBiT-tagged Molt4 cells (ATCC CRL-1552, monoclonal cell line clone 1C10) were plated at 1×10^6 cells/mL, 100 μL/well ([…]) in complete RPMI (10% FBS, 1% L-glutamine). The cells were incubated with compound 10 and compound 17 for 4 hrs at […]/6% CO2.
Following incubation, 100 μL of complete Nano-Glo HiBiT Lytic Detection Reagent (Nano-Glo HiBiT Lytic Buffer with 1:50 Nano-Glo HiBiT Lytic Substrate and 1:100 LgBiT Protein; Promega cat. no. N3040) was added. Cells were further incubated for 10 min at room temperature (RT). Luminescence units (LU) were read on an EnVision plate reader (Perkin Elmer, 0.1 sec per well). Percent ITK remaining per sample was calculated as follows: […]
Using Graphpad Prism, % ITK remaining values were plotted as a function of compound concentration. To determine DC50 and Dmax values, resulting curves were fit to the Prism curve-fitting equation “log(inhibitor) vs response—Variable slope (four parameters)” (reported best fit value IC50 used as DC50). ITK was measured with antibody-based MSD (Meso-Scale Discovery) assays shown below.

Row | Structure (SMILES) | DC50 [nM] | Dmax [%]
1 | C[C@@]12Cc3[nH]nc(C(=O)Nc4cnn(CC5CCN(CC6CCN(c7ccc(C8CCC(=O)NC8=O)cn7)CC6)CC5)c4)c3C[C@@H]1C2(F)F (mixture of isomers) [Compound 120, (4aS,5aR)-N-[1-({1-[(1-{5-[(3RS)-2,6-dioxopiperidin-3-yl]pyridin-2-yl}piperidin-4-yl)methyl]piperidin-4-yl}methyl)-1H-pyrazol-4-yl]-5,5-difluoro-5a-methyl-1H,4H,4aH,5H,5aH,6H-cyclopropa[f]indazole-3-carboxamide] | 0.049 | 84
2 | CN(c1ccc2cc(-c3n[nH]c4c3C[C@@H]3C(F)(F)[C@]3(C)C4)[nH]c2c1)C(=O)[C@H]1C[C@@]2(CCN(c3ccc4c(c3)C(=O)N([C@H]3CCC(=O)NC3=O)C4=O)C2)C1 (racemic) [Compound 71a, (2r,4r)-N-[2-[(4aS,5aR)-5,5-difluoro-5a-methyl-1H,4H,4aH,6H-cyclopropa[f]indazol-3-yl]-1H-indol-6-yl]-6-[2-[(3RS)-2,6-dioxopiperidin-3-yl]-1,3-dioxoisoindol-5-yl]-N-methyl-6-azaspiro[3.4]octane-2-carboxamide] |  | 53
3 | C[C@@]12Cc3[nH]nc(-c4cc5ccc(C(=O)N6CCN(CC7CCN(c8ccc(C9CCC(=O)NC9=O)cc8)CC7)CC6)cc5[nH]4)c3C[C@@H]1C2(F)F (stereo partly drawn) [Compound 135, 3-(4-(4-((4-(2-((4aS,5aR)-5,5-difluoro-5a-methyl-1,4,4a,5,5a,6-hexahydrocyclopropa[f]indazol-3-yl)-1H-indole-6-carbonyl)piperazin-1-yl)methyl)piperidin-1-yl)phenyl)piperidine-2,6-dione] | < 0.01 | 85
4 | C[C@@]12Cc3[nH]nc(-c4cc5ccc(C(=O)N6CC7CCC(C6)N7CC6CCN(c7ccc(C8CCC(=O)NC8=O)cc7)CC6)cc5[nH]4)c3C[C@@H]1C2(F)F (mixture of isomers) [Compound 154] |  | 76
5 | Cc1cc(N2CCC(CN3CCN(C(=O)c4ccc5cc(-c6n[nH]c7c6CCC(C)(C)C7)[nH]c5c4)CC3)CC2)ccc1C1CCC(=O)NC1=O (centres unmarked) [Compound 182] |  | 70
6 | C[C@H]1CN(C(=O)c2ccc3cc(-c4n[nH]c5c4CCC(C)(C)C5)[nH]c3c2)CCN1CC1CCN(c2ccc(C3CCC(=O)NC3=O)cn2)CC1 (stereo partly drawn) [Compound 131, 3-(6-(4-(((S)-4-(2-(6,6-dimethyl-4,5,6,7-tetrahydro-1H-indazol-3-yl)-1H-indole-6-carbonyl)-2-methylpiperazin-1-yl)methyl)piperidin-1-yl)pyridin-3-yl)piperidine-2,6-dione] | 0.5 | 84
7 | C[C@@]12Cc3[nH]nc(C(=O)Nc4cnn(CC5CCN(C(=O)C6CCN(c7ccc(C8CCC(=O)NC8=O)cc7)CC6)CC5)c4)c3C[C@@H]1C2(F)F (mixture of isomers) [Compound 173] |  | 87
8 | C[C@@]12Cc3[nH]nc(C(=O)Nc4ccc(C5CCN(CC6CCN(c7ccc(C8CCC(=O)NC8=O)cc7)CC6)CC5)cc4)c3C[C@@H]1C2(F)F (stereo partly drawn) [Compound 108, (4aS,5aR)-N-(4-(1-((1-(4-(2,6-dioxopiperidin-3-yl)phenyl)piperidin-4-yl)methyl)piperidin-4-yl)phenyl)-5,5-difluoro-5a-methyl-1,4,4a,5,5a,6-hexahydrocyclopropa[f]indazole-3-carboxamide] | 1.8 | 88
9 | CC1(C)CCc2c(-c3cc4ccc(C(=O)N5CCN(CC6CCN(c7ncc(C8CCC(=O)NC8=O)cc7F)CC6)CC5)cc4[nH]3)n[nH]c2C1 (centres unmarked) [Compound 183] |  | 81
10 | CC1(C)CCc2c(C(=O)Nc3cnn([C@H]4CC[C@H](C(=O)N5CCN(c6ccc(C7CCC(=O)NC7=O)cn6)CC5)CC4)c3)n[nH]c2C1 (mixture of isomers) [Compound 175] |  | 65
11 | C[C@@]12Cc3[nH]nc(-c4cc5cc(C(=O)N6CCN(C[C@H]7CCN(c8ccc(C9CCC(=O)NC9=O)cc8)C7)CC6)ccc5[nH]4)c3C[C@@H]1C2(F)F (some centres unmarked) [Compound 147] |  | 81
12 | C[C@@]12Cc3[nH]nc(C(=O)Nc4cnn(C5CCN(CC6CCN(c7ncc(C8CCC(=O)NC8=O)cn7)CC6)CC5)c4)c3C[C@@H]1C2(F)F (mixture of isomers) [Compound 115, (4aS,5aR)-N-(1-{1-[(1-{5-[(3RS)-2,6-dioxopiperidin-3-yl]pyrimidin-2-yl}piperidin-4-yl)methyl]piperidin-4-yl}-1H-pyrazol-4-yl)-5,5-difluoro-5a-methyl-1H,4H,4aH,5H,5aH,6H-cyclopropa[f]indazole-3-carboxamide] | 0.391 | 84
13 | CN(C(=O)CCC1CCN(c2ccc(C3CCC(=O)NC3=O)cn2)C1)c1ccc2cc(-c3n[nH]c4c3C[C@@H]3C(F)(F)[C@]3(C)C4)[nH]c2c1 (stereo partly drawn) [Compound 70, N-(2-((4aS,5aR)-5,5-difluoro-5a-methyl-1,4,4a,5,5a,6-hexahydrocyclopropa[f]indazol-3-yl)-1H-indol-6-yl)-3-(1-(5-(2,6-dioxopiperidin-3-yl)pyridin-2-yl)pyrrolidin-3-yl)-N-methylpropanamide] |  | 53
14 | C[C@@]12Cc3[nH]nc(-c4cc5cc(F)c(C(=O)N6CCN(CC7CCN(c8ccc(C(=O)N[C@H]9CCC(=O)NC9=O)nc8)CC7)CC6)cc5[nH]4)c3C[C@@H]1C2(F)F [Compound 144] |  | 78
15 | C[C@H]1CN(C(=O)c2ccc3cc(-c4n[nH]c5c4C[C@@H]4C(F)(F)[C@]4(C)C5)[nH]c3c2)CCN1CC1CCN(c2ccc(C3CCC(=O)NC3=O)cc2F)CC1 (mixture of isomers) [Compound 155] |  | 84
16 | C[C@@]12Cc3[nH]nc(C(=O)Nc4cnn([C@@H]5CCN(C[C@@H]6CCN(c7ccc(C8CCC(=O)NC8=O)cc7)C6)C[C@H]5F)c4)c3C[C@@H]1C2(F)F (stereo partly drawn) [Compound 101, (4aS,5aR)-N-(1-((3R,4R)-1-(((3S)-1-(4-(2,6-dioxopiperidin-3-yl)phenyl)pyrrolidin-3-yl)methyl)-3-fluoropiperidin-4-yl)-1H-pyrazol-4-yl)-5,5-difluoro-5a-methyl-1,4,4a,5,5a,6-hexahydrocyclopropa[f]indazole-3-carboxamide] | 1.1 | 87
17 | C[C@@]12Cc3[nH]nc(-c4cc5cc(C(=O)N6CCN(CC7CCN(c8ccc(C(=O)N[C@H]9CCC(=O)NC9=O)nc8)CC7)CC6)ccc5[nH]4)c3C[C@@H]1C2(F)F [Compound 142] |  | 80
18 | CC1(C)CCc2c(-c3cc4ccc(C(=O)N5CCC(CC6CCN(c7ccc(C8CCC(=O)NC8=O)cn7)CC6)CC5)cc4[nH]3)n[nH]c2C1 (centres unmarked) [Compound 54, 3-(6-(4-((1-(2-(6,6-dimethyl-4,5,6,7-tetrahydro-1H-indazol-3-yl)-1H-indole-6-carbonyl)piperidin-4-yl)methyl)piperidin-1-yl)pyridin-3-yl)piperidine-2,6-dione] | 11 | 
19 | C[C@@]12Cc3[nH]nc(C(=O)Nc4cnn(C5CCN(CC6CCN(c7ccc(N8CCC(=O)NC8=O)cn7)CC6)CC5)c4)c3C[C@@H]1C2(F)F [Compound 113, (4aS,5aR)-N-{1-[1-({1-[5-(2,4-dioxo-1,3-diazinan-1-yl)pyridin-2-yl]piperidin-4-yl}methyl)piperidin-4-yl]-1H-pyrazol-4-yl}-5,5-difluoro-5a-methyl-1H,4H,4aH,5H,5aH,6H-cyclopropa[f]indazole-3-carboxamide] | 0.4 | 80
